# Counter-ions that a name gives are not always drawn.
# How the values were obtained:
# 5-HT2C receptor = target: T1, 5-HT2C receptor (Homo sapiens, UniProt P28335); test: Human 5-HT2C functional assay (beta-arrestin2 recruitment, U2OS_HTR2C_β-Arrestin cells); format: cell-based; conditions: for EC50: beta-arrestin2 recruitment, U2OS_HTR2C_β-Arrestin cells, 1.5 h incubation, read-out: EC50 5-HT2C (potency in functional assay); for Emax: relative efficacy vs response to 10 μM 5-HT or maximal 5-HT effect (100%)
# T1 construct: host or cells: U2OS
# Procedure, shortened: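 U2OS cells expressing HTR2C with β-galactosidase complementation, switched to 1% serum medium 24 h post-plating, were treated next day with compound for 1.5 h; chemiluminescence read. Response expressed as % of 10 µM 5-HT or maximal 5-HT effect; EC50 from 4-parameter variable-slope fit.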
# [1] = Metabolic stability in human liver microsomes, unbound intrinsic clearance (Cl int/fu mic); format: in vitro ADME; conditions: human, liver microsomes, pH 7.4, human liver microsomes 0.25 mg/mL, 0.5 μM compound, NADPH, read-out: Cl int, mic unb. (h) [l/h/kg] (unbound intrinsic clearance, human)
# Procedure, shortened: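 Compound (0.5 µM) was incubated with human liver microsomes (0.25 mg/mL) in pH 7.4 phosphate buffer at 37 °C with 1.0 mM NADPH, sampling from 0–30 min. Depletion was followed by LC-MS/MS, and CLint was derived from first-order t1/2 per mg protein. Microsomal unbound fraction came from 4 h equilibrium dialysis at 37 °C, giving CLint/fu mic.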
# T1 sequence (P28335 33-458): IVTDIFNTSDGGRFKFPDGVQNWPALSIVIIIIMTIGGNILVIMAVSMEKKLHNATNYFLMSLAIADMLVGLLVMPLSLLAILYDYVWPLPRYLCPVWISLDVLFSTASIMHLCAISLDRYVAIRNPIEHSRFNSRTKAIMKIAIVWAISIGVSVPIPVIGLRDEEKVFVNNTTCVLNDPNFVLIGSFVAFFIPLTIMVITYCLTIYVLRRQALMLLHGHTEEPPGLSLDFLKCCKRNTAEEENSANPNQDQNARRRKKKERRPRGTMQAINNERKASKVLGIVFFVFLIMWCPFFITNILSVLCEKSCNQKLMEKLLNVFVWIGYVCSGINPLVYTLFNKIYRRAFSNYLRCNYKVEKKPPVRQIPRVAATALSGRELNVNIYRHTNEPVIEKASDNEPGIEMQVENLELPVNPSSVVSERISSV
# T1 sequence (P32121 whole entry partner): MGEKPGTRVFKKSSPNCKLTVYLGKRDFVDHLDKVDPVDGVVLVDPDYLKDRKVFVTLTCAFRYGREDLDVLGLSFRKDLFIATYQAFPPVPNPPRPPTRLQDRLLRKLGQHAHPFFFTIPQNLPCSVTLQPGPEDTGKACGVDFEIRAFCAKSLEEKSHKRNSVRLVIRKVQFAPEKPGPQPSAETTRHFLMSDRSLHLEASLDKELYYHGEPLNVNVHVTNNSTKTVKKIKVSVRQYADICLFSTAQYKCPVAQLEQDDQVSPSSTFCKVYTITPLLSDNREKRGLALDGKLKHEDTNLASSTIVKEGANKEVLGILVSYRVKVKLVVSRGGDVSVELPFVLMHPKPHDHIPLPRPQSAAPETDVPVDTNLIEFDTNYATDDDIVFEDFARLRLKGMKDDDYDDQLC
Structure (SMILES),EC50 (5-HT2C receptor) [nM],Emax (5-HT2C receptor) [%],CLint scaled at 0.5 μM [1] [L/h/kg]
"COc1nc(N2CCc3ccccc32)c(F)cc1CNC(=O)[C@@H]1CCCN1 [Example 138, (2S)—N-[(5-Fluoro-6-indolin-1-yl-2-methoxy-3-pyridyl)methyl]pyrrolidine-2-carboxamide Hydrochloride]",200 to 1000,> 70,5 to 50
"COc1nc(OCC2CC(F)(F)C2(F)F)c(F)cc1CNC(=O)[C@@H]1CCCN1C (stereo partly drawn) [Example 90, (2S)—N-[[5-Fluoro-2-methoxy-6-[(2,2,3,3-tetrafluorocyclobutyl)methoxy]-3-pyridyl]methyl]-1-methyl-pyrrolidine-2-carboxamide Hydrochloride]",< 20,> 70,< 5
"COc1nc(Nc2ccc(F)cc2)c(F)cc1CNC(=O)[C@@H]1CCCN1 [Example 178, (2S)—N-[[5-Fluoro-6-(4-fluoroanilino)-2-methoxy-3-pyridyl]methyl]pyrrolidine-2-carboxamide; 2,2,2-trifluoroacetic Acid]",200 to 1000,,< 5
"COc1nc(O[C@H]2CC[C@H](C(F)(F)F)CC2)c(F)cc1CN(C)C(=O)[C@@H]1CCCN1 [Example 116, (2S)—N-[[5-Fluoro-2-methoxy-6-[trans-4-(trifluoromethyl)cyclohexoxy]-3-pyridyl]methyl]-N-methyl-pyrrolidine-2-carboxamide Hydrochloride]",20 to 200,50 to 70,5 to 50
"COc1nc(O[C@H]2CCC[C@@H](C(F)(F)F)C2)c(F)cc1CNC(=O)[C@@H]1CCCN1 (relative stereo) [Example 88, (2S)—N-[[5-Fluoro-2-methoxy-6-[(1S,3R)-3-(trifluoromethyl)cyclohexoxy]-3-pyridyl]methyl]pyrrolidine-2-carboxamide Hydrochloride]",< 20,> 70,5 to 50
"COc1nc(O[C@H]2CC[C@@H](F)CC2)c(F)cc1CNC(=O)[C@@H]1CCCN1 [Example 30, (2S)—N-[[5-Fluoro-6-(cis-4-fluorocyclohexoxy)-2-methoxy-3-pyridyl]methyl]-pyrrolidine-2-carboxamide; Fumaric Acid]",< 20,> 70,< 5
"COc1nc(OC2CCC(F)(F)CC2)c(F)cc1CNC(=O)[C@@H]1CCN1 [Example 37, (2S)—N-[[6-(4,4-Difluorocyclohexoxy)-5-fluoro-2-methoxy-3-pyridyl]methyl]-azetidine-2-carboxamide; Succinic Acid]",< 20,50 to 70,< 5
"COc1nc(OC2CC(F)(F)C2)c(F)cc1CNC(=O)[C@@H]1CCCN1 [Example 44, (2S)—N-[[6-(3,3-Difluorocyclobutoxy)-5-fluoro-2-methoxy-3-pyridyl]methyl]-pyrrolidine-2-carboxamide; Succinic Acid]",< 20,> 70,< 5
"COc1nc(O[C@H]2CC[C@@H](C(F)(F)F)CC2)c(F)cc1CNC(=O)[C@@H]1CCCN1 [Example 20, (2S)—N-[[5-Fluoro-2-methoxy-6-[cis-4-(trifluoromethyl)cyclohexoxy]-3-pyridyl]methyl]pyrrolidine-2-carboxamide; Fumaric Acid]",< 20,> 70,5 to 50
"COc1nc(O[C@@H]2CCC(F)(F)C2)c(F)cc1CNC(=O)[C@@H]1CCCN1C [Example 27, (2S)—N-[[6-[(1R)-3,3-Difluorocyclopentoxy]-5-fluoro-2-methoxy-3-pyridyl]methyl]-1-methyl-pyrrolidine-2-carboxamide Hydrochloride]",< 20,> 70,< 5
"COc1nc(N(C)C2CCC(F)(F)CC2)c(F)cc1CNC(=O)[C@@H]1CCCN1 [Example 154, (2S)—N-[[6-[N-(4,4-Difluorocyclohexyl)-N-methyl-amino]-5-fluoro-2-methoxy-3-pyridyl]methyl]pyrrolidine-2-carboxamide; 2,2,2-trifluoroacetic Acid]",20 to 200,> 70,5 to 50
"COc1nc(OC2CC(F)(F)C2)cnc1CNC(=O)[C@@H]1CCCN1 [Example 107, (2S)—N-[[5-(3,3-Difluorocyclobutoxy)-3-methoxy-pyrazin-2-yl]methyl]pyrrolidine-2-carboxamide; 2,2,2-trifluoroacetic Acid]",200 to 1000,> 70,< 5
"Cc1nc(OC2CCC(C(F)(F)F)CC2)ccc1CNC(=O)C1CCCN1 [Example 65, (S)—N-((2-Methyl-6-(((1R,4S)-4-(trifluoromethyl)cyclohexyl)oxy)pyridin-3-yl)methyl)pyrrolidine-2-carboxamide]",20 to 200,50 to 70,< 5
"COc1nc(OCC(F)(F)F)c(F)cc1CNC(=O)[C@@H]1CCCN1 [Example 87, (2S)—N-[[5-Fluoro-2-methoxy-6-(2,2,2-trifluoroethoxy)-3-pyridyl]methyl]-pyrrolidine-2-carboxamide; 2,2,2-trifluoroacetic Acid]",< 20,> 70,< 5
"COc1nc(OCC2(C(F)(F)F)CC2)c(F)cc1CNC(=O)[C@@H]1CCCN1C [Example 63, (2S)—N-[[5-Fluoro-2-methoxy-6-[[1-(trifluoromethyl)cyclopropyl]methoxy]-3-pyridyl]methyl]-1-methyl-pyrrolidine-2-carboxamide Hydrochloride]",< 20,> 70,< 5
"COc1nc(OC[C@H]2CCC(F)(F)C2)c(F)cc1CNC(=O)[C@@H]1CCCN1 [Example 32, (2S)—N-[[6-[[(1S)-3,3-Difluorocyclopentyl]methoxy]-5-fluoro-2-methoxy-3-pyridyl]methyl]pyrrolidine-2-carboxamide; Fumaric Acid]",< 20,50 to 70,< 5
"COc1nc(OC[C@@H]2CCC(F)(F)C2)c(F)cc1CNC(=O)[C@@H]1CCCN1 [Example 33, (2S)—N-[[6-[[(1R)-3,3-Difluorocyclopentyl]methoxy]-5-fluoro-2-methoxy-3-pyridyl]methyl]pyrrolidine-2-carboxamide; Fumaric Acid]",< 20,> 70,< 5
"COc1nc(OC2CCC(C(F)(F)F)CC2)c(F)cc1CNC(=O)[C@@H]1C[C@H]2C[C@H]2N1 (stereo partly drawn) [Example 82, (1R,3 S,5R)—N-[[5-Fluoro-2-methoxy-6-[4-(trifluoromethyl)cyclohexoxy]-3-pyridyl]methyl]-4-azabicyclo[3.1.0]hexane-3-carboxamide]",20 to 200,> 70,5 to 50
"COc1nc(N2CCC(F)CC2)c(F)cc1CNC(=O)[C@@H]1CCCN1 [Example 160, (2S)—N-[[5-Fluoro-6-(4-fluoro-1-piperidyl)-2-methoxy-3-pyridyl]methyl]-pyrrolidine-2-carboxamide; 2,2,2-trifluoroacetic Acid]",20 to 200,50 to 70,< 5
"COc1nc(OC2CCC(F)(F)CC2)c(F)cc1CNC(=O)[C@@H]1C[C@@H](F)CN1 [Example 34, (2S,4R)—N-[[6-(4,4-Difluorocyclohexoxy)-5-fluoro-2-methoxy-3-pyridyl]methyl]-4-fluoro-pyrrolidine-2-carboxamide; Fumaric Acid]",< 20,> 70,< 5

# — patent US20190062305A1, “PYRIDYL OR PYRAZINYL COMPOUNDS CARRYING A METHYL-BOUND ALPHA-AMINO ACID AMIDE GROUP” (ABBVIE DEUTSCHLAND GMBH & CO. KG, priority 2015, published 2019)
